Reference: PubChem BioAssay AID1253 (Columbia University Molecular Screening Center, 2008)
Calls of active or inactive are those of the source.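 How the source made its calls: active means IC50 under 10 µM in the follow-up dose response; inactive means IC50 10 µM or more, or under 40% single-dose inhibition.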

Target: Tyrosine-protein phosphatase non-receptor type 22 (Homo sapiens) (UniProt Q9Y2R2)
Assay: PTPN22 enzyme inhibition – biochemical, DiFMUP fluorescence, retest and dose response, confirmation (AID 1253)
Details: recombinant LYP; for inhibition: at 10 µM, hits give high values

Chain of Tyrosine-protein phosphatase non-receptor type 22 (Homo sapiens) (Q9Y2R2 whole entry, looked up): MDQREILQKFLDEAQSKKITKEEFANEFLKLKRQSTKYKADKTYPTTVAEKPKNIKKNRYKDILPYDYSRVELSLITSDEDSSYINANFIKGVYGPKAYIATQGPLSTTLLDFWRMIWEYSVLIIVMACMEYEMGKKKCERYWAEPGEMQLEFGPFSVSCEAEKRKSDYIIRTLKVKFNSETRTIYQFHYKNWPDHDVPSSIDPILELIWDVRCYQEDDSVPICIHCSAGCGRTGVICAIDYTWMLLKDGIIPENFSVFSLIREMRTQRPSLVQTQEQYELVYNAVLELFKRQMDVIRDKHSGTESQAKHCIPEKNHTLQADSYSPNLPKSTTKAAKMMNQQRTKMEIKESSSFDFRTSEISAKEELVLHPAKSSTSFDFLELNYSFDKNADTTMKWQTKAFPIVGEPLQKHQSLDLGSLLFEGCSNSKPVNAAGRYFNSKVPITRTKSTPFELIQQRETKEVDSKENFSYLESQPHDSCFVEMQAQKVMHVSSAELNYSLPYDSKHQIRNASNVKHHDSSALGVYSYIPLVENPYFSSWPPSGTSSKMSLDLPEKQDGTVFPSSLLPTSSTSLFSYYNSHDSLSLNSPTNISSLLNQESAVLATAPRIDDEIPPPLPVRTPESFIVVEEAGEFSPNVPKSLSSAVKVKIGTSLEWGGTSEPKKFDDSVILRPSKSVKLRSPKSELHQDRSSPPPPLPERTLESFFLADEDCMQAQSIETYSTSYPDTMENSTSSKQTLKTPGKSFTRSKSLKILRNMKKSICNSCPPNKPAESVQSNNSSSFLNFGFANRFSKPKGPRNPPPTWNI

SMILES: CC(OC(=O)c1ccco1)C(=O)NC1CCCCC1 (centres undefined)
- inhibition: inactive

SMILES: O=C(CCN1C(=O)c2ccccc2C1=O)Oc1ccc2ccccc2c1
- inhibition: inactive

SMILES: CC(C)C(CCNC(=O)CC(Cc1ccccc1)c1ccco1)c1ccco1 (centres undefined)
- inhibition: inactive

SMILES: O=C1NC(=O)C(=Cc2cn(CCOc3ccc4c(c3)OCO4)c3ccccc23)C(=O)N1
- inhibition: inactive

SMILES: CCOC(=O)c1c(-n2c(C)cc(C=C3C(=O)NC(=S)NC3=O)c2C)sc2c1CCCC2
- inhibition: inactive

SMILES: O=C(Nc1ccc2oc(-c3ccc(Cl)c(Cl)c3)nc2c1)c1ncn[nH]1
- inhibition: inactive

SMILES: COc1ccc(C2C(C#N)=C(N)N(c3sc4c(c3C#N)CCCC4)C3=C2C(=O)CC(C)(C)C3)cc1OC (centres undefined)
- inhibition: inactive

SMILES: Cc1ccc(CSC2=Nc3ccccc3C3=NC(CC(=O)NCc4ccco4)C(=O)N23)cc1 (centres undefined)
- inhibition: inactive

SMILES: Clc1ccc(C2=Nn3c(nnc3-c3cc(-c4ccccc4)n[nH]3)SC2)cc1
- inhibition: inactive

SMILES: O=C(OCC1OC(n2cnc3c(N(C(=O)c4ccccc4)C(=O)c4ccccc4)ncnc32)C(O)C1F)c1ccccc1 (centres undefined)
- inhibition: inactive

SMILES: Cc1cc(C)cc(-n2c3nc4ccccc4nc3c3c(=O)n(Cc4ccco4)cnc32)c1
- inhibition: inactive

SMILES: COCCCNC(=O)c1cccn2c(=O)c3cc4ccccc4cc3nc12
- inhibition: inactive

SMILES: Cc1ccc(C(=O)NNC(=O)CSc2nnc3c(n2)[nH]c2ccc(F)cc23)cc1
- inhibition: inactive

SMILES: Cc1ccc(NC(=O)CN2C(=O)S/C(=C/c3ccc(-c4cc(C(=O)O)ccc4C)o3)C2=O)cc1C
- inhibition: inactive

SMILES: Cc1nn(-c2ccccc2)c(C)c1/C=N/NC(=O)c1cc(C23CC4CC(CC(C4)C2)C3)[nH]n1
- inhibition: inactive

SMILES: CCn1c(CSc2nc3ccccc3s2)nnc1SCC(=O)c1ccc(O)c(O)c1
- inhibition: inactive

SMILES: O=C(CN(C(=O)CNC(=O)c1ccco1)c1ccc2c(c1)OCO2)NC1CCCCC1
- inhibition: inactive

SMILES: Cc1sc(NC(=O)c2sc3nc4c(C)cccc4cc3c2N)c(C#N)c1C
- inhibition: inactive

SMILES: c1ccc(-c2cc(-c3nnc4n3N=C(c3ccc5ccccc5c3)CS4)[nH]n2)cc1
- inhibition: inactive

SMILES: CN(C)/C=C/C(=O)c1ccc(F)cc1
- inhibition: inactive

SMILES: COc1ccccc1/C=C\C=N\n1c(C2CCCCC2)n[nH]c1=S
- inhibition: inactive

SMILES: CCN(CC(=O)NC(=O)NC1CCCCC1)Cc1nc2ccccc2c(=O)[nH]1
- inhibition: inactive

SMILES: CCC(C)n1c(C)nc2c(c1=O)c1nc3ccccc3nc1n2CCC1=CCCCC1 (centres undefined)
- inhibition: inactive

SMILES: Cc1nc2ccc(S(=O)(=O)NCC(=O)NCc3ccc4c(c3)OCO4)cc2s1
- inhibition: inactive

SMILES: Cc1ccc(CSc2nnc(-c3ccccc3N)c(=O)[nH]2)cc1
- inhibition: inactive

SMILES: Cc1c(CCOC(=O)C2C3CC4CC(C3)CC2C4)sc[n+]1CC(=O)c1ccc(Br)cc1 (centres undefined)
- inhibition: inactive

SMILES: Cc1cc([N+](=O)[O-])nn1CC(=O)NNC(=S)Nc1ccc([N+](=O)[O-])cc1
- inhibition: inactive

SMILES: Cc1ccc2c(Cl)cc(Cl)c(OCC(=O)NCc3ccco3)c2n1
- inhibition: inactive

SMILES: CSc1ccc(/C=N\NC(=O)COc2ccc(Cl)cc2Br)cc1
- inhibition: inactive

SMILES: Cc1cc(C(C)(C)C)cc(C)c1COC(=O)C1CCC(=O)N1 (centres undefined)
- inhibition: inactive

SMILES: O=[N+]([O-])c1cc(/C=N\Nc2nccs2)ccc1O
- IC50: 4.06 µM

SMILES: CCOC(=O)c1cn(-c2nc(-c3ccc(Cl)c(Cl)c3)cs2)c2c(F)c(N3CCOCC3)c(F)cc2c1=O
- inhibition: inactive

SMILES: COc1ccc2cc(CN(Cc3ccco3)C(c3nnnn3C3CCCCC3)C(C)C)c(=O)[nH]c2c1 (centres undefined)
- inhibition: inactive

SMILES: Cc1ccc2nc(NC(=S)NC(=O)c3cccs3)sc2c1
- inhibition: inactive

SMILES: COc1ccccc1OCc1nnc(SCC(=O)NCc2ccco2)n1Cc1ccco1
- inhibition: inactive

SMILES: CC(=O)Nc1nonc1NC(=O)c1ccc(C(C)(C)C)cc1
- inhibition: inactive

SMILES: Nc1nnnn1/N=C/c1ccccc1C(F)(F)F
- inhibition: inactive

SMILES: Cc1c2cc(O)c(=O)cc-2oc2cc(O)c(O)cc12
- IC50: 0.48 µM

SMILES: CC(/C=N/n1c(C2CCCCC2)n[nH]c1=S)=C\c1ccccc1
- inhibition: inactive
